The target in one experiment is T1, SrEF-Tu mutant A378T (Streptomyces ramocissimus, UniProt P29542, A379T).
T1 construct: made in house; host or cells: E. coli PM1455
Briefly: in vitro poly(U) directed poly(phe) synthesis. In kind it is biochemical, S. ramocissimus. Here is the method: The sensitivity of SrEF-Tu mutants A378V and A378T to elfamycin was tested by in vitro studies. Both parent and mutant S. ramocissimus EF-Tu, after transformation of the respective cloned genes, were expressed in an E. coli strain encoding an elfamycin resistant EF-Tu. Cell-free extracts of these transformants were subsequently tested for elfamycin sensitivity of the translation apparatus, using a variation on the procedure described by C. Glöckner and H. Wolf (cited above). […] The parent SrEF-Tu reached 50% residual activity already at 1.6 mg/l. […]
Plasmids pUSrT1-1, pUSrT1V-1 and pUSrT1T-1 were transformed to E. coli PM1455 (tufA, tufB::Mu, rpoB, recA56; P. van der Meide et al., Eur. J. Biochem. 130 (1983) 409-417); this strain has only one active tuf gene, which encodes an elfamycin resistant EF-Tu. […] The first 4 fractions having absorbance at 260 nm were pooled. […]
At 0°C an incubation mixture was prepared consisting of 40 mM Tris-acetate pH 7.6, 10 mM Mg-acetate, 60 mM NH₄Cl, 5 mM β-mercaptoethanol, 1 mM ATP, 0.025 mM GTP, 2.5 mM phosphoenolpyruvate, 0.25 µg/ml pyruvate kinase, 0.8 mg/ml tRNA, 0.1 mg/ml poly(U), 95 µM phenylalanine, and 3 µCi/ml ³H-phenylalanine (57 Ci/mmol). […] Incorporation of ³H-phenylalanine was analyzed in a liquid scintillation counter. […]

Experiment [1] has as its system S. ramocissimus CBS 190.69. Briefly: regeneration of protoplasts on regeneration medium. Particulars: for Regeneration efficiency of protoplasts: regeneration medium. In kind it is cell-based. The protocol: (§1) Spores were isolated essentially as described by D. Hopwood et al. (cited above), and used to inoculate YMG medium (yeast extract 4 g/l, malt extract 10 g/l, glucose 4 g/l) containing 0.5% glycine. Protoplasts were obtained by lysozyme treatment of this culture, transformed as described by D. Hopwood et al. (cited above) with plasmid pMTST1VΔS and pMTST1TΔS. Subsequently the transformed protoplasts were spread on regeneration medium, and incubated at 30°C. Regeneration medium was prepared by mixing equal volumes of sporulation medium and stabilizer medium. Stabilizer medium consisted of NaNO₃ 3 g/l, K₂HPO₄.3H₂O 0.085 g/l, K₂SO₄ 0.25 g/l, FeSO₄.7H₂O 0.01 g/l, trace element solution 0.1 ml, Tris 3.03 g/l, NaCl 2.92 g/l, sucrose 103 g/l, glucose 10 g/l, MgCl₂.6H₂O 5 g/l, CaCl₂.2H₂O 1.5 g/l, and agar 20 g/l, adjusted to pH 7.2 with 4N HCl. […] After 24 hrs the regeneration plates were overlaid with 3 ml soft agar containing 20 µg/ml thiostrepton (D. Hopwood et al., cited above) and incubated at 30°C for 5 days.
(§2) Another test was carried out using protoplasts of strains S. ramocissimus CBS 190.69 and S. ramocissimus R1V, prepared as described in Example 7. […] Thus protoplasts were plated on regeneration medium (Example 7) containing 0 to 0.1 g/l mocimycin. Under these conditions protoplasts of S. ramocissimu CBS 190.69 were able to regenerate only at mocimycin concentrations below 0.02 g/l; regeneration of S. ramocissimus R1V protoplasts in the presence of up to 0.1 g/l mocimycin occurred with the same efficiency as without mocimycin (Table 2).

A further experiment deals with S. ramocissimus R1V. The experiment in a line: regeneration of protoplasts on regeneration medium. In kind it is cell-based. To be noted: for Regeneration efficiency of protoplasts: regeneration medium. The protocol:
as §1, §2

The mark [2] stands for this setting: regeneration medium containing 0 to 0.1 g/l mocimycin.

T1 sequence (P29542 whole entry A379T): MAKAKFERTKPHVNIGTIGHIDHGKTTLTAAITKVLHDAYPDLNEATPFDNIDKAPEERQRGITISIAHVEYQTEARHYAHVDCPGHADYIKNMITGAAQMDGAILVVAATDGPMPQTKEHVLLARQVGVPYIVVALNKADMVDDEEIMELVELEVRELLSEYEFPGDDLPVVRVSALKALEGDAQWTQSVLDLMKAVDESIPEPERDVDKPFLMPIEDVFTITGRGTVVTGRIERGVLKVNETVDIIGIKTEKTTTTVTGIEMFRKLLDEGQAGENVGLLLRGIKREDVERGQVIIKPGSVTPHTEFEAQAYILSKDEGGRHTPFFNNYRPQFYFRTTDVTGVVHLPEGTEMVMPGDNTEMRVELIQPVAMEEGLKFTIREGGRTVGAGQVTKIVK

For `C/C=C\C=C\[C@@H]1O[C@](O)([C@H](CC)C(=O)NC/C=C/C=C(\C)[C@@H](OC)[C@H](C)[C@@H]2O[C@H](/C=C/C=C/C=C(\C)C(=O)c3c(O)cc[nH]c3=O)[C@H](O)[C@@H]2O)[C@H](O)[C@H](O)C1(C)C` [mocimycin, Mocimycin], the “efficiency of ³H-phenylalanine incorporation compared to the parallel incubation without mocimycin” value at SrEF-Tu mutant A378T (16 mg/l mocimycin, period of 40 minutes) worked out at 80%. Moreover, the “mocimycin concentration at a residual activity of 50% in the in vitro poly(phe) synthesis” value on SrEF-Tu mutant A378T (S-30 extract of E. coli PM1455 transformant, reaction time 10 minutes) worked out at 160 mg/L. The “mocimycin concentrations at which protoplasts were able to regenerate” value in experiment [1] (setting [2]) is on record as “below 0.02 g/l”. The “Regeneration efficiency of protoplasts” value is 40% in experiment [1] (mocimycin 0.01 g/l); 0% in experiment [1] (mocimycin 0.02 g/l); 0% in experiment [1] (mocimycin 0.04 g/l); 0% in experiment [1] (mocimycin 0.07 g/l); 0% in experiment [1] (mocimycin 0.10 g/l); 100% with S. ramocissimus R1V (mocimycin 0.01 g/l). Further, the “Regeneration efficiency of protoplasts” value in the experiment with S. ramocissimus R1V (mocimycin 0.02 g/l) turned out to be 100%; in the experiment with S. ramocissimus R1V (mocimycin 0.04 g/l) it was 100%; with S. ramocissimus R1V (mocimycin 0.07 g/l) it was 90%; with S. ramocissimus R1V (mocimycin 0.10 g/l) it was 80%. Besides, in the experiment on S. ramocissimus R1V (setting [2]), the “mocimycin concentration up to which regeneration occurred with the same efficiency as without mocimycin” value is “up to 0.1 g/l”.
